Results reported in BigSolDB 2.1.

OCCOc1ccc2ccccc2c1-c1c(OCCO)ccc2ccccc12
solubility (mole fraction)
Conditions	283.15 K	288.15 K	293.15 K	298.15 K	303.15 K	308.15 K	313.15 K	318.15 K	323.15 K
in acetone	0.00658	0.00893	0.0121	0.0153	0.0212	0.027	0.0352	0.0441	0.0567
in ethyl acetate	0.00227	0.00328	0.00464	0.00604	0.00802	0.0104	0.0133	0.0174	0.0229
in ethyl formate	0.00207	0.00284	0.00399	0.00539	0.00721	0.00964	0.0123	0.0161	0.0209
in isobutanol	0.000512	0.000733	0.00108	0.00147	0.00209	0.00291	0.00388	0.005	0.00655
in isobutyl acetate	0.00105	0.00158	0.0022	0.00296	0.00396	0.00518	0.00692	0.00911	0.0117
in isopropanol	0.000762	0.00102	0.00132	0.00187	0.00263	0.00351	0.00487	0.00649	0.00847
in methyl acetate	0.00297	0.00423	0.00595	0.00778	0.0102	0.0137	0.0173	0.0218	0.0292
in n-butanol	0.000873	0.00119	0.00168	0.00242	0.00317	0.00428	0.0058	0.00782	0.0109
in n-butyl acetate	0.00136	0.00186	0.00286	0.00389	0.00486	0.00646	0.0086	0.0108	0.0144
in n-pentanol	0.000827	0.00116	0.00163	0.00227	0.00303	0.00413	0.00551	0.00725	0.00966
in n-propanol	0.00111	0.00143	0.00189	0.00268	0.00369	0.00494	0.00644	0.00847	0.012
in toluene	0.000885	0.00122	0.00176	0.0025	0.00331	0.00447	0.00595	0.00794	0.0104
